Measured values reported in US20150299185A1, “NOVEL IMIDAZOPYRIDINE DERIVATIVES AS A TYROSINE KINASE INHIBITOR” (HANMI PHARM. CO., LTD., priority 2011, published 2015).

Experiments:
[1] = target: T1, BTK (Homo sapiens, UniProt Q06187); test: BTK inhibitory activity, Z-Lyte Kinase Assay Kit; format: biochemical; details: 60 minutes at room temperature, BTK enzyme (Invitrogen PV3190)
T1 construct: purchased Invitrogen PV3190
Method: (§1) Evaluation of JAK3 and BTK Inhibitory Activity
(§2) The compounds prepared in Examples 1 to 20 were tested for JAK3 and BTK inhibitory activity. Kinase inhibitory activity was measured by using Z-Lyte Kinase Assay Kit (Invitrogen), and JAK3 and BTK enzymes were purchased from Invitrogen (PV3855, PV3190).
(§3) Specifically, the compounds of Examples 1 to 20 were diluted with a 4% aqueous solution of DMSO to obtain solutions with concentrations in the range of 1˜0.0001 μM. Each kinase was diluted to 1˜10 ng/assay, and ATP was diluted to form a kinase buffer (50 mM HEPES, pH 7.4; 10 mM MgCl2; 1 mM EGTA; 0.01% BRIJ-35) by calculating an approximate Kd value. The assays were performed in 384-well polystyrene flat-bottomed plates. 5 μL of the diluted solution of the compound, peptide substrate having a suitable concentration, 10 μL of mixed kinase solution and 5 μL of ATP solution having a concentration of 5 to 300 μM were added to the sample, and allowed to react in a mixer for 60 minutes at room temperature. After 60 minutes, 10 μL of fluorescent labeling reagents was added to each mixture so as to allow fluorescent labeling of peptide substrates, followed by adding a finishing solution to complete the reaction. The fluorescence level was measured using a Molecular Device with an excitation filter at 400 nm, and an emission filter at 520 nm. The kinase inhibitory activities of the compounds were calculated in phosphorylation rates between 0˜100% against the control group (staurosporine or each of kinase inhibitor) with reference to the protocol of the kit, and percentage inhibition was calculated and plotted against concentration (x-axis) to calculate 50% inhibitory concentration (IC50). The IC50 values were obtained by using Microsoft Excel, and the results are shown in Table 5, wherein A: IC50≦50 nM, B: IC50=50˜100 nM, C: IC50=100˜1,000 nM, and D: IC50≧1,000 nM.

[2] = target: T2, JAK3 (Homo sapiens, UniProt P52333); test: JAK3 inhibitory activity, Z-Lyte Kinase Assay Kit; format: biochemical; details: 60 minutes at room temperature, JAK3 enzyme (Invitrogen PV3855)
T2 construct: purchased Invitrogen PV3855
T2 sequence (P52333 781-1124 limits assumed): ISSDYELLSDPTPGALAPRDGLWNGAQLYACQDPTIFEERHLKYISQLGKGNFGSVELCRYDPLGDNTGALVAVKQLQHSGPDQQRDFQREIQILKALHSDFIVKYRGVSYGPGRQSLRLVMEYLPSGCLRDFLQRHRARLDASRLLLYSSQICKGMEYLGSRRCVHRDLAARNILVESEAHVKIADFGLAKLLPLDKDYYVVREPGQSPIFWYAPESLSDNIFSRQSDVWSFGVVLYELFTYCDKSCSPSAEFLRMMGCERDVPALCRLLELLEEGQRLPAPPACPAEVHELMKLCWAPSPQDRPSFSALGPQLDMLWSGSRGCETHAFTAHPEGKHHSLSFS
Method: as §1, §2, §3

T1 sequence (Q06187 whole entry): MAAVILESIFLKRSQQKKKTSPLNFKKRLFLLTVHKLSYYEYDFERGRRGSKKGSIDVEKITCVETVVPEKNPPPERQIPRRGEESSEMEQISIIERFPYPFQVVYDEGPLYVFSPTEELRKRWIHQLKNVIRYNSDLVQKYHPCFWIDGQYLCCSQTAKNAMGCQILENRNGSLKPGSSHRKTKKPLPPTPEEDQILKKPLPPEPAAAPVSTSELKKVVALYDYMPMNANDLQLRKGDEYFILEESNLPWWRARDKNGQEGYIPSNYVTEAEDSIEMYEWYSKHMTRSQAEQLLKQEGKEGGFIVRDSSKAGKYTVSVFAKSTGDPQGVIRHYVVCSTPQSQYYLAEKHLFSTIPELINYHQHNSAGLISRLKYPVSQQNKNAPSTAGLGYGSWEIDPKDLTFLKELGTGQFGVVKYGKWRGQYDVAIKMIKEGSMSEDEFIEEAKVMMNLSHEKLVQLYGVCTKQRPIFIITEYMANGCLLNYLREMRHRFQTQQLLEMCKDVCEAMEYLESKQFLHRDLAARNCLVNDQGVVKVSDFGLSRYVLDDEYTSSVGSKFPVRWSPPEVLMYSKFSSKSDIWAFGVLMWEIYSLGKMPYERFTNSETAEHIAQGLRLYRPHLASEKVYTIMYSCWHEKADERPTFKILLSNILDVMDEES

Row | SMILES | IC50 [1] | IC50 [2]
1 | C=CC(=O)Nc1cccc(Oc2c(Cl)cnc3[nH]c(-c4ccc(N(C)C)cc4)nc23)c1 [Example 6, N-(3-(6-chloro-2-(4-(dimethylamino)phenyl)-3H-imidazo[4,5-b]pyridin-7-yloxy)phenyl)acrylamide] | 100 to 1000 nM | –
2 | C=CC(=O)Nc1cccc(Oc2c(Cl)cnc3[nH]c(-c4ccc(OC)cc4)nc23)c1 [Example 18, N-(3-(6-chloro-2-(4-methoxyphenyl)-3H-imidazo[4,5-b]pyridin-7-yloxy)phenyl)acrylamide] | 100 to 1000 nM | –
3 | C=CC(=O)Nc1cccc(Oc2c(Cl)cnc3[nH]c(-c4ccc(C(=O)N(C)C)cc4)nc23)c1 [Example 8, 4-(7-(3-acrylamidophenoxy)-6-chloro-3H-imidazo[4,5-b]pyridin-2-yl)-N,N-dimethylbenzamide] | ≤ 50 nM | 50 to 100 nM
4 | C=CC(=O)Nc1cccc(Oc2c(Cl)cnc3[nH]c(-c4ccc(C(=O)N5CCN(C)CC5)cc4)nc23)c1 [Example 3, N-(3-(6-chloro-2-(4-(4-methylpiperazin-1-carbonyl)phenyl)-3H-imidazo[4,5-b]pyridin-7-yloxy)phenyl)acrylamide] | ≤ 50 nM | 100 to 1000 nM
5 | C=CC(=O)Nc1cccc(Oc2c(Cl)cnc3[nH]c(-c4ccncc4)nc23)c1 [Example 19, N-(3-(6-chloro-2-(pyridin-4-yl)-3H-imidazo[4,5-b]pyridin-7-yloxy)phenyl)acrylamide] | 100 to 1000 nM | ≤ 50 nM
6 | C=CC(=O)Nc1cccc(Oc2c(Cl)cnc3[nH]c(-c4ccc(C(=O)O)cc4)nc23)c1 [Example 9, 4-(7-(3-acrylamidophenoxy)-6-chloro-3H-imidazo[4,5-b]pyridin-2-yl)-benzoic acid] | 100 to 1000 nM | –
7 | C=CC(=O)Nc1cccc(Oc2c(Cl)cnc3[nH]c(-c4ccc(CN(CC)CC)cc4)nc23)c1 [Example 13, N-(3-(6-chloro-2-(4-((diethylamino)methyl)phenyl)-3H-imidazo[4,5-b]pyridin-7-yloxy)phenyl)acrylamide] | ≤ 50 nM | ≤ 50 nM
8 | C=CC(=O)Nc1cccc(Oc2c(Cl)cnc3[nH]c(-c4ccc(NC5CCN(C)CC5)cc4)nc23)c1 [Example 5, N-(3-(6-chloro-2-(4-(1-methylpiperidin-4-ylamino)phenyl)-3H-imidazo[4,5-b]pyridin-7-yloxy)phenyl)acrylamide] | ≤ 50 nM | ≤ 50 nM
9 | C=CC(=O)Nc1cccc(Oc2ccnc3[nH]c(-c4ccc(N5CCN(C)CC5)cc4)nc23)c1 [Example 20, N-(3-(2-(4-(4-methylpiperazin-1-yl)phenyl)-3H-imidazo[4,5-b]pyridin-7-yloxy)phenyl)acrylamide] | 100 to 1000 nM | 100 to 1000 nM
10 | C=CC(=O)Nc1cccc(Oc2c(Cl)cnc3[nH]c(-c4ccc(C(=O)NC5CCN(C)CC5)cc4)nc23)c1 [Example 10, 4-(7-(3-acrylamidophenoxy)-6-chloro-3H-imidazo[4,5-b]pyridin-2-yl)-N-(1-methylpiperidin-4-yl)benzamide] | 50 to 100 nM | –
11 | C=CC(=O)Nc1cccc(Oc2c(Cl)cnc3[nH]c(-c4ccc([S+](C)[O-])cc4)nc23)c1 (stereo not shown) [Example 7, N-(3-(6-chloro-2-(4-(methylsulphinyl)phenyl)-3H-imidazo[4,5-b]pyridin-7-yloxy)phenyl)acrylamide] | ≤ 50 nM | –
12 | C=CC(=O)Nc1cccc(Oc2c(Cl)cnc3[nH]c(-c4ccc(CN(C)CC)cc4)nc23)c1 [Example 12, N-(3-(6-chloro-2-(4-((ethyl(methyl)amino)methyl)phenyl)-3H-imidazo[4,5-b]pyridin-7-yloxy)phenyl)acrylamide] | ≤ 50 nM | ≤ 50 nM

More lines, now with the values ahead:

Row | IC50 [1] | IC50 [2] | SMILES
13 | ≤ 50 nM | – | C=CC(=O)Nc1cccc(Oc2c(Cl)cnc3[nH]c(-c4ccc(C(=O)N5CCOCC5)cc4)nc23)c1 [Example 4, N-(3-(6-chloro-2-(4-(morpholin-4-carbonyl)phenyl)-3H-imidazo[4,5-b]pyridin-7-yloxy)phenyl)acrylamide]
14 | 50 to 100 nM | ≤ 50 nM | C=CC(=O)Nc1cccc(Oc2c(Cl)cnc3[nH]c(-c4ccc(CN5CCN(C)CC5)cc4)nc23)c1 [Example 17, N-(3-(6-chloro-2-(4-((4-methylpiperazin-1-yl)methyl)phenyl)-3H-imidazo[4,5-b]pyridin-7-yloxy)phenyl)acrylamide]
15 | ≤ 50 nM | ≤ 50 nM | C=CC(=O)Nc1cccc(Oc2c(Cl)cnc3[nH]c(-c4ccc(CN5CCCCC5)cc4)nc23)c1 [Example 15, N-(3-(6-chloro-2-(4-(piperidin-1-ylmethyl)phenyl)-3H-imidazo[4,5-b]pyridin-7-yloxy)phenyl)acrylamide]
16 | ≤ 50 nM | 50 to 100 nM | C=CC(=O)Nc1cccc(Oc2c(Cl)cnc3[nH]c(-c4ccc(N5CCN(C)CC5)cc4)nc23)c1 [Example 1, N-(3-(6-chloro-2-(4-(4-methylpiperazin-1-yl)phenyl)-3H-imidazo[4,5-b]pyridin-7-yloxy)phenyl)acrylamide]
17 | 50 to 100 nM | 100 to 1000 nM | C=CC(=O)Nc1cccc(Oc2c(Cl)cnc3[nH]c(-c4ccc(N5CCC(O)CC5)cc4)nc23)c1 [Example 2, N-(3-(6-chloro-2-(4-(4-hydroxypiperidin-1-yl)phenyl)-3H-imidazo[4,5-b]pyridin-7-yloxy)phenyl)acrylamide]
18 | ≤ 50 nM | ≤ 50 nM | C=CC(=O)Nc1cccc(Oc2c(Cl)cnc3[nH]c(-c4ccc(CN(C)C)cc4)nc23)c1 [Example 11, N-(3-(6-chloro-2-(4-((dimethylamino)methyl)phenyl)-3H-imidazo[4,5-b]pyridin-7-yloxy)phenyl)acrylamide]
19 | ≤ 50 nM | ≤ 50 nM | C=CC(=O)Nc1cccc(Oc2c(Cl)cnc3[nH]c(-c4ccc(CN5CCCC5)cc4)nc23)c1 [Example 14, N-(3-(6-chloro-2-(4-(pyrroldin-1-ylmethyl)phenyl)-3H-imidazo[4,5-b]pyridin-7-yloxy)phenyl)acrylamide]
20 | 50 to 100 nM | ≤ 50 nM | C=CC(=O)Nc1cccc(Oc2c(Cl)cnc3[nH]c(-c4ccc(CN5CCOCC5)cc4)nc23)c1 [Example 16, N-(3-(6-chloro-2-(4-(morpholinomethyl)phenyl)-3H-imidazo[4,5-b]pyridin-7-yloxy)phenyl)acrylamide]
